Experimental data taken from article PMC12472947 (Pharmaceuticals, 2025).
Entries after “also recorded” stand apart in the source; their conditions may differ. Read-outs that look alike come from different tables or passages of the source.

What was measured:
[1] = target: T1, equine serum BChE [EqBChE] (Equus caballus, UniProt P81908); assay: biochemical; details: Ellman method, read-out: IC50(nM) ± SD BChE (EqBChE)
T1 construct: equine serum BChE [EqBChE]; from tissue; host or cells: equine serum
Description: (§1) The anticholinesterase activity was determined using Ellman’s method, adapted as follows. […] Subsequently, 60 μL of 5,5′-dithiobis(2-nitrobenzoic acid) (DTNB, 1.1 mM) and 30 μL of enzyme solution (electric eel AChE [EeAChE], human AChE [hAChE], or equine serum BChE [EqBChE], 0.20 U/mL) containing 1 mg/mL bovine serum albumin (BSA) were added. […] Enzyme activity was calculated as the percentage relative to untreated controls, subtracting the blank reference. IC50 values were derived via non-linear regression analysis of dose–response curves (Figure S4) using GraphPad Prism v7.0.

hH3R = target: T2, hH3R (Homo sapiens, UniProt Q9Y5N1); assay: H3R radioligand displacement assay ([3H]-N-α-methylhistamine); format: binding; details: 95% confidence interval in brackets; HEK-293 membranes
T2 construct: expressed in transfected cells; host or cells: HEK-293
Description: HEK-293 cells (human embryonic kidney cells) stably expressing hH3R were washed and harvested in PBS buffer (phosphate-buffered saline). […] The cell membrane homogenate was centrifuged (20,000× g, 20 min, 4 °C), and the resulting pellet was resuspended in binding buffer and stored at −80 °C until use.
Prior to experiments, the cell membranes were thawed, homogenized by sonication at 4 °C, and kept in ice-cold binding buffer. Crude membrane extracts (20 μg/well in a final volume of 0.2 mL binding buffer) were incubated with [^3H]-N-α-methylhistamine (2 nM; 78.3 Ci/mmol) and varying concentrations of test compounds. Assays were performed in duplicate, with compound concentrations ranging from 0.01 nM to 100 μM. Incubations proceeded for 90 min at room temperature under continuous agitation.
Bound radioligand was separated from free radioligand by filtration through GF/B filters pretreated with 0.3% (w/v) polyethyleneimine, using a cell harvester. Radioactivity was quantified by liquid scintillation counting. Data were analyzed using GraphPad Prism v8 (San Diego, CA, USA) software, employing non-linear regression analysis.

[2] = target: electric eel AChE [EeAChE] (Electrophorus electricus, UniProt O42275); assay: biochemical; format: biochemical; details: for IC50: Electric eel AChE, Ellman method, read-out: IC50(nM) ± SD AChE (EeAChE); for SI: Selectivity Index = EqBChE IC50/EeAChE IC50
Description: as §1

hMAO-A = target: T3, hMAO-A (Homo sapiens, UniProt P21397); assay: MAO-A inhibition, fluorometric Amplex Red assay; format: biochemical; details: test concentration of 1 µM; read-out: Percentage of MAO-A inhibition ± SEM
T3 construct: purchased Sigma-Aldrich, Gillingham, UK
T3 sequence (P21397 1-527): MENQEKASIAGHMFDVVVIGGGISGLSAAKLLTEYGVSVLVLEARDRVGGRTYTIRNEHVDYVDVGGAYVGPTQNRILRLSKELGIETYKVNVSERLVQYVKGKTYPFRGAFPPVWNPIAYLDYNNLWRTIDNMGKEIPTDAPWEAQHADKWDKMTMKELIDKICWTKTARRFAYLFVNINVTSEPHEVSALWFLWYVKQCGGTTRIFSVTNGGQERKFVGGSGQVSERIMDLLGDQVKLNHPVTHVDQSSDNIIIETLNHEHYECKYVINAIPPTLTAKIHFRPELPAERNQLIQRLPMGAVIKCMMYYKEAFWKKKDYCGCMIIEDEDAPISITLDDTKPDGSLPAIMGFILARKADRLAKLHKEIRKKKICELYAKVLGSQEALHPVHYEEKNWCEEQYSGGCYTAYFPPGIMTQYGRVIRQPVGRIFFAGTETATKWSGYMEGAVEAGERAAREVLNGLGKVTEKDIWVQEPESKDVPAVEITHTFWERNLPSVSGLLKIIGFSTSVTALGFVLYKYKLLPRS
Description: The activity of human recombinant membrane-bound monoamine oxidase isoforms A and B (MAO-A/B) (Sigma-Aldrich, Gillingham, UK) in 50 mM potassium phosphate buffer (pH 7.5) was determined by measuring hydrogen peroxide production coupled to the fluorescent dye Amplex Red (Sigma-Aldrich, UK) at a final concentration of 50 μM, in the presence of horseradish peroxidase (HRP, 2.5 U/mL). This coupling reaction generates the fluorescent product resorufin, which was quantified at 30 °C using a fluorescence plate reader. […].
(§2) Reactions were initiated by adding the substrate and dye after a 30 min preincubation of the inhibitor with the enzyme. Data were analyzed using a three-parameter equation in GraphPad Prism 7.0 (San Diego, USA). Each reported value represents the mean of at least two independent determinations.

hMAO-B = target: T4, hMAO-B (Homo sapiens, UniProt P27338); assay: biochemical; format: biochemical; details: test concentration of 1 µM; read-out: Percentage of MAO-B inhibition ± SEM
T4 construct: purchased Sigma-Aldrich, Gillingham, UK
T4 sequence (P27338 1-520): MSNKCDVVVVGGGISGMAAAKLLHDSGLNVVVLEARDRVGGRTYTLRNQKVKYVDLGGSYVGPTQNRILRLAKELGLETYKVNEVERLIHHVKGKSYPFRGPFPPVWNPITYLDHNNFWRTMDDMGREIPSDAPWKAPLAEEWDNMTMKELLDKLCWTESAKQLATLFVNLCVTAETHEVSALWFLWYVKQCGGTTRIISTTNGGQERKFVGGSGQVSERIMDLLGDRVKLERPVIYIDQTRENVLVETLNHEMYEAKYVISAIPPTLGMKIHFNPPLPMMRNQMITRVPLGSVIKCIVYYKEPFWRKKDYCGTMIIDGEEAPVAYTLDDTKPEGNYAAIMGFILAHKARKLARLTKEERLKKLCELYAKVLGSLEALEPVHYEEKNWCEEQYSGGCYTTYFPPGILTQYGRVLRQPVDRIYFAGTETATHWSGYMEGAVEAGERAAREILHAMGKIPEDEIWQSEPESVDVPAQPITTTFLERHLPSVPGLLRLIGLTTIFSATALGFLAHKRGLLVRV
Description: The activity of human recombinant membrane-bound monoamine oxidase isoforms A and B (MAO-A/B) (Sigma-Aldrich, Gillingham, UK) in 50 mM potassium phosphate buffer (pH 7.5) was determined by measuring hydrogen peroxide production coupled to the fluorescent dye Amplex Red (Sigma-Aldrich, UK) at a final concentration of 50 μM, in the presence of horseradish peroxidase (HRP, 2.5 U/mL). This coupling reaction generates the fluorescent product resorufin, which was quantified at 30 °C using a fluorescence plate reader.
as §2

[3] = system: H2O2-damaged SH-SY5Y cells; assay: In vitro neuroprotection against H2O2 in SH-SY5Y (MTT); details: Homo sapiens, SH-SY5Y, read-out: Cell viability (% of control)
Description: For the neuroprotection assay, the cells previously cultured (Section 3.4.1) were seeded in 96-well plates at a density of 5 × 10^4 cells/well in a volume of 200 µL. The plates were incubated at 37 °C containing 5% CO2 for 24 h. After 24 h, the medium was replaced with the test solutions. […] Finally, the test solutions were removed, the cells were washed with PBS pH 7.4, and the H2O2 solution was added and maintained in contact with the cells for 24 h. After 24 h exposure, the neuroprotective capacity was assessed through cell viability using the MTT assay protocol previously described in Section 3.4.3 [52, 53].

[4] = target: T5, equine serum butyrylcholinesterase (EqBuChE) (Equus caballus, UniProt P81908); assay: Enzymatic kinetic study, EqBChE; format: biochemical; details: BChE
T5 construct: equine serum BChE [EqBChE]; from tissue; host or cells: equine serum
Description: (§3) The enzymatic kinetics of cholinesterase inhibition were determined according to an adapted Ellman’s method. All of the solutions were prepared at 20 °C in 0.02 M Tris-HCl buffer (pH 7.5; ionic strength ~0.02 M), stock solutions of test compounds were prepared in DMSO:EtOH (7:3) mixture (20 mM), and the experiment was conducted in triplicate. To a flat-bottom 96-well transparent plate (path length of 0.6 cm) were added 150 μL of treatment solutions with inhibitors 1a, 1h, and 1j at two different concentrations (Table S1) distributed in eight sets of triplicate each. Eight sets of untreated triplicates were used as a negative control. Following, there were added 60 μL of 5,5′-Dithiobis(2-nitrobenzoic acid) (DTNB, Ellman’s reagent) at 1.1 mM and 30 μL of electric eel acetylcholinesterase (EeAChE) or equine serum butyrylcholinesterase (EqBuChE) at 0.20 U/mL in the presence of 1 mg/mL bovine serum albumin (BSA). […] Ki, Ki’ (competitive and noncompetitive inhibition constants, respectively), Km (Michaelis-Menten constant), and Vmax values were calculated with Graphpad Prism v7.0 using the non-linear regression models for enzyme kinetics inhibition and enzyme kinetics–substrate vs. velocity.

human AChE [hAChE] = human AChE [hAChE] (Homo sapiens, UniProt P22303); assay: biochemical
Description: as §1

[5] = Cytotoxicity (neurotoxicity) MTT assay in SH-SY5Y; format: cell-based; details: human, SH-SY5Y neuroblastoma cells
Description: (§4) The immortalized human neuroblastoma cell line (SH-SY5Y–ATCC: CRL-2226; BCRJ:0223) was used to evaluate cytotoxicity. The cell line was cultured in Dulbecco’s Modified Eagle’s Medium and F12 in a 1:1 ratio (DMEM:F12; Sigma-Aldrich code 0697, Brazil) supplemented with 10% fetal bovine serum (FBS; Sigma-Aldrich code F2442, Brazil) and 1% streptomycin/penicillin (10,000 U/mL and 10,000 μg/mL, respectively; Nova Biotecnologia code BR30110-01, Cotia, SP, Brazil) and incubated at 37 °C with 5% CO2. The culture medium was replaced every 48 h, until the cells reached semi-confluence (≥70%). Cell passage was carried out with the aid of trypsin-EDTA/0.25% solution (Nova Biotecnologia, Brazil) and divided between 5 or 8 mL culture volumes depending on the respective bottles (25 or 75 cm^2) used.
(§5) The in vitro cytotoxicity assay evaluated cell viability using the [3-(4,5-dimethylthiazol-2yl)-2,5-diphenyl tetrazolium] bromide (MTT) reduction assay. Cells were seeded at an initial density of 5.0 × 10^4 cells/well in 96-well plates in a volume of 200 µL. […] In the next step, the culture medium was replaced by the sample solution previously described (Section 3.4.2). After 24 h exposure, the medium was replaced with 100 μL of MTT in phosphate-buffer saline (PBS), pH 7.4, at a concentration of 0.5 mg.mL^−1/well and the plates were incubated for an additional 3 h. Then, the MTT solution was removed, and 100 μL of DMSO was added to solubilize the formazan crystals. The cell viability was measured by absorbance at 562 nm using a Microplate Absorbance Reader (Kasuaki, Brazil). All concentrations tested were evaluated in nine replicates (n = 9). The variation in results was observed using ANOVA followed by Tukey’s test for multiple comparisons through GraphPad Prism v5^TM with a significance level of p < 0.05.

[6] = system: SH-SY5Y neuroblastoma cells; assay: Cytotoxicity (neurotoxicity) MTT assay in SH-SY5Y; format: cell-based; details: up to 50 µM
Description: as §4, §5

[7] = target: electric eel acetylcholinesterase (EeAChE) (Electrophorus electricus, UniProt O42275); assay: Enzymatic kinetic study, EeAChE; format: biochemical; details: AChE
Description: as §3

[8] = target: T1, equine serum BChE [EqBChE]; set-up: method as in PMID 30727776; details: Figure 1; ref [22]; read-out: EqBChE (IC50 of prototype); cited from earlier work
[9] = system: SH-SY5Y neuroblastoma cells; details: 50 μM, ref [28],[29]; cited from earlier work
[10] = competitive inhibition constant (Table S2), read-out: Ki (nM) ± SD
[11] = global non-linear regression, mixed inhibition (Table S3)

electric eel AChE [EeAChE], sequence (O42275 24-633): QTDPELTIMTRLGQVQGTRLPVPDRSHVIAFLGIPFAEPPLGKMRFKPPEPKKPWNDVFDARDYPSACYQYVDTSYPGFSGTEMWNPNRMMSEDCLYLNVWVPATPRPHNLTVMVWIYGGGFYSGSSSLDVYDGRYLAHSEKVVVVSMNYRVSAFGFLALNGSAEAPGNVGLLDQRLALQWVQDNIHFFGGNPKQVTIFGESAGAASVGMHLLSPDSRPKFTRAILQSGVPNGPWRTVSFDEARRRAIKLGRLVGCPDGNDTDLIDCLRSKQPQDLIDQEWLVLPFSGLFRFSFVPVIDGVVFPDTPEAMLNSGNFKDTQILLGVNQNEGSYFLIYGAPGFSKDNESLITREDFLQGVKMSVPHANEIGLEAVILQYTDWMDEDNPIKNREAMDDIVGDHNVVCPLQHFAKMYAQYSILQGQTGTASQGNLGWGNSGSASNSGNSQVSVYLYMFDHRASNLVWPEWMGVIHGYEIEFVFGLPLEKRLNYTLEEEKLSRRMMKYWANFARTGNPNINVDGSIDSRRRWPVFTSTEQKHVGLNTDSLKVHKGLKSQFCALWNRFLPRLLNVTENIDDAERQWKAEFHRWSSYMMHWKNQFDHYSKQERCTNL
electric eel acetylcholinesterase (EeAChE), sequence (O42275 24-633): as above
T1 sequence (P81908 whole entry): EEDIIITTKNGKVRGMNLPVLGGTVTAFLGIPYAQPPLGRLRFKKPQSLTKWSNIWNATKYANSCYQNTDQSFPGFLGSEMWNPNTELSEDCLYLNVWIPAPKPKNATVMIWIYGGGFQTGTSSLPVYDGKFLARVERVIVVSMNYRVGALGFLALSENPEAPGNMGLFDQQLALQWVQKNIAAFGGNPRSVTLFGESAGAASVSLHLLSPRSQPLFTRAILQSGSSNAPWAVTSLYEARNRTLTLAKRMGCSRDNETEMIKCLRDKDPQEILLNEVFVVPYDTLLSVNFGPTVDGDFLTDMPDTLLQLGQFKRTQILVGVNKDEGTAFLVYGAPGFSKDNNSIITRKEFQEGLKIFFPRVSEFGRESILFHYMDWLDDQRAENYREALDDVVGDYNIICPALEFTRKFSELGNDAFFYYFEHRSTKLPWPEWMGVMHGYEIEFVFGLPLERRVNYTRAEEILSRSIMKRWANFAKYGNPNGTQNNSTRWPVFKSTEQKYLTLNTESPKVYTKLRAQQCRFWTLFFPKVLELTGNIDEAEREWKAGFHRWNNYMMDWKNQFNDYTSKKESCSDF
T5 sequence (P81908 whole entry): as above
human AChE [hAChE], sequence (P22303 32-614): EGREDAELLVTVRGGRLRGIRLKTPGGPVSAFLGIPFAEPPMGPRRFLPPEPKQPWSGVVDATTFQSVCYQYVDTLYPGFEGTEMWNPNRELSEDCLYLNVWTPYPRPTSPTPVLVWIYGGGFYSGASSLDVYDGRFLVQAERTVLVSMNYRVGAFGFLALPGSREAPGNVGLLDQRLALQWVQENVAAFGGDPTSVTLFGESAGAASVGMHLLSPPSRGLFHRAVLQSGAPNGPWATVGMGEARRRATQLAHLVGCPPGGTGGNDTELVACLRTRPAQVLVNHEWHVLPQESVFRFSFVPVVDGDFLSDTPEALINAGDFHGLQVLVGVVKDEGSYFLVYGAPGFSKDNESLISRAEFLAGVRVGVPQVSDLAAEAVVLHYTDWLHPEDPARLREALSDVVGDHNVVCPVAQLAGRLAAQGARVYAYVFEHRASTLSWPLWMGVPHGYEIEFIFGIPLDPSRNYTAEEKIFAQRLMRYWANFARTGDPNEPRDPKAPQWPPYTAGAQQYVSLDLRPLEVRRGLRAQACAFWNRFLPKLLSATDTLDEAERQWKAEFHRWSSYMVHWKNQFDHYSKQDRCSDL
T2 sequence (Q9Y5N1 whole entry): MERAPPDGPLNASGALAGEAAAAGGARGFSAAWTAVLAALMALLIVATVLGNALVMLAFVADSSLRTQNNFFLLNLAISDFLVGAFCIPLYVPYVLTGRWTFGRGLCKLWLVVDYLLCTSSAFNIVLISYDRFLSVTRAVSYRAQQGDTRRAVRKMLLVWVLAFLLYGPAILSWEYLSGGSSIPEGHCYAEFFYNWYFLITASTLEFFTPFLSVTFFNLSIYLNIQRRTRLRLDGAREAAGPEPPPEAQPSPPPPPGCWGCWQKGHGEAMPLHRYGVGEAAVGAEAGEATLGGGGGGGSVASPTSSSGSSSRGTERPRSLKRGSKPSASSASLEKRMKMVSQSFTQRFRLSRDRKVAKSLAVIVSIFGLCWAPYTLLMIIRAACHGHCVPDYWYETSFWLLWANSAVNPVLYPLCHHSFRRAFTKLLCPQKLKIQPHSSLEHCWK

For `O=c1oc2cc(OCCCN3CCCCC3)ccc2cc1-c1cn(-c2ccccc2)nn1` [Compound 1b, 3-(1-Phenyl-1H-1,2,3-triazol-4-yl)-7-(3-(piperidin-1-yl)propoxy)-2H-chromen-2-one], the IC50 [1] was 3970 ± 94 nM, the Ki (hH3R) was 32 nM and the IC50 [2] was 1330 ± 45 nM. It also gave an SI [2] of 3, an inhibition at 1 µM (hMAO-A) of 6.4 ± 0.5% and an inhibition at 1 µM (hMAO-B) of 11.4 ± 1.9%.
`COc1cccc(Cn2cc(-c3cc4ccc(OCCN5CCCCC5)cc4oc3=O)nn2)c1` [Compound 1j, 3-(1-(3-Methoxybenzyl)-1H-1,2,3-triazol-4-yl)-7-(2-(piperidin-1-yl)ethoxy)-2H-chromen-2-one] showed a viability at 12.5 µM [3] of 68%, a Ki [4, 10] of 615 ± 0.58 nM and a Ki ([4]; free enzyme (Table S3), read-out: Ki ± SE (95% CI)) of 944 ± 200 nM. The “α ± SE (95% CI)” value [4, 11] was 3.349 ± 1.984, the “Vmax ± SD” value ([4]; inhibitor 1.9 μM) was 5.97 ± 0.1562 1 × 10^3 nM/min and the “Vmax ± SD” value ([4]; inhibitor 3.9 μM) was 4.12 ± 0.2257 1 × 10^3 nM/min. The IC50 [1] was 2880 ± 120 nM, the IC50 (human AChE [hAChE]; Human AChE, Ellman method, read-out: IC50(nM) ± SD AChE (hAChE) (converted)) was 12.5 nM and the SI (human AChE [hAChE]; SI = EqBChE IC50/hAChE) was 222. The viability at 24 h, 12.5 µM ([5]; 12.5 μM, 24 h, MTT, read-out: Cell viability (% of control)) was 71%, the viability at 24 h, 25 µM ([5]; 25.0 μM, 24 h, MTT, read-out: Cell viability (% of control)) was 70% and the viability at 24 h, 50 µM ([5]; 50.0 μM, 24 h, MTT, read-out: Cell viability (% of control)) was 63%. The viability at 24 h ([5]; up to 25 μM, read-out: cell viability) was at least 70%, the neurotoxicity [6] was “non-neurotoxic; also recorded: neurotoxicity in high concentrations” and the IC50 [2] was 4.16 ± 0.11 nM. The SI [2] was 686, the Ki [7, 10] was 0.508 ± 0.0001 nM and the Ki ([7]; corrected for tight-binding using the Morrison equation (Table S3), read-out: Ki ± SE (95% CI)) was 0.637 nM. For the same compound, the “α ± SE (95% CI)” value [7, 11] was 4.248 ± 1.415, the “Vmax ± SD” value ([7]; inhibitor 0.003 μM) was 5.21 ± 0.0656 1 × 10^3 nM/min and the “Vmax ± SD” value ([7]; inhibitor 0.005 μM) was 3.90 ± 0.1517 1 × 10^3 nM/min.
For `CN(C)c1ccc(-c2cc3ccc(OCCN4CCCCC4)cc3oc2=O)cc1` [Compound 2], the IC50 [8] is given as 6370 nM.
In the case of `Nc1c2c(nc3ccccc13)CCCC2` [tacrine], the cell viability [9] is listed as 97%.
